Measured values: article PMC3651934 (2011)

What was measured:
Experiment in all cases: ITC
[1] = system: SAM-I riboswitch A1nC, G2nU, G3nU (RNA, riboswitch) GGCUUAUCAAGAGAGGUUUCGGGACUGGCCCGACGAAACCCGGCAACCAGAAAUGGUGCCAAUUCCUGCAGCGGAAACGUUGAAAGAUGAGCCG; details: 100 mM KCl, 10 mM MgCl2; 50 mM HEPES pH 7.5, 30 °C; 100 μM SAM titrated into 10 μM RNA; no heat evolved
[2] = system: SAM-I riboswitch, natural k-turn (RNA, riboswitch) GGCUUAUCAAGAGAGGUGGAGGGACUGGCCCGACGAAACCCGGCAACCAGAAAUGGUGCCAAUUCCUGCAGCGGAAACGUUGAAAGAUGAGCCG; details: 100 mM KCl, 10 mM MgCl2; 50 mM HEPES pH 7.5, 30 °C
[3] = system: SAM-I riboswitch G2nU, G3nU (RNA, riboswitch) GGCUUAUCAAGAGAGGUUUAGGGACUGGCCCGACGAAACCCGGCAACCAGAAAUGGUGCCAAUUCCUGCAGCGGAAACGUUGAAAGAUGAGCCG; details: 100 mM KCl, 10 mM MgCl2; 50 mM HEPES pH 7.5, 30 °C
[4] = system: SAM-I riboswitch A1nU (RNA, riboswitch) GGCUUAUCAAGAGAGGUGGUGGGACUGGCCCGACGAAACCCGGCAACCAGAAAUGGUGCCAAUUCCUGCAGCGGAAACGUUGAAAGAUGAGCCG; details: 100 mM KCl, 10 mM MgCl2; 50 mM HEPES pH 7.5, 30 °C; 100 μM SAM titrated into 10 μM RNA; no heat evolved
[5] = system: SAM-I riboswitch G2nA (RNA, riboswitch) GGCUUAUCAAGAGAGGUGAAGGGACUGGCCCGACGAAACCCGGCAACCAGAAAUGGUGCCAAUUCCUGCAGCGGAAACGUUGAAAGAUGAGCCG; details: 100 mM KCl, 10 mM MgCl2; 50 mM HEPES pH 7.5, 30 °C
[6] = system: SAM-I riboswitch G2nC (RNA, riboswitch) GGCUUAUCAAGAGAGGUGCAGGGACUGGCCCGACGAAACCCGGCAACCAGAAAUGGUGCCAAUUCCUGCAGCGGAAACGUUGAAAGAUGAGCCG; details: 100 mM KCl, 10 mM MgCl2; 50 mM HEPES pH 7.5, 30 °C; 100 μM SAM titrated into 10 μM RNA; no heat evolved
[7] = system: SAM-I riboswitch G3nU (RNA, riboswitch) GGCUUAUCAAGAGAGGUUGAGGGACUGGCCCGACGAAACCCGGCAACCAGAAAUGGUGCCAAUUCCUGCAGCGGAAACGUUGAAAGAUGAGCCG; details: 100 mM KCl, 10 mM MgCl2; 50 mM HEPES pH 7.5, 30 °C
[8] = system: SAM-I riboswitch A1nC (RNA, riboswitch) GGCUUAUCAAGAGAGGUGGCGGGACUGGCCCGACGAAACCCGGCAACCAGAAAUGGUGCCAAUUCCUGCAGCGGAAACGUUGAAAGAUGAGCCG; details: 100 mM KCl, 10 mM MgCl2; 50 mM HEPES pH 7.5, 30 °C; 100 μM SAM titrated into 10 μM RNA; no heat evolved

C[S+](CC[C@H](N)C(=O)O)C[C@H]1O[C@@H](n2cnc3c(N)ncnc32)[C@H](O)[C@@H]1O (some centres unmarked)
binding [1]: no | Kd [2]: 0.54 ± 0.25 µM | Kd [3]: 1.95 ± 0.27 µM | binding [4]: no | Kd [5]: 0.31 ± 0.06 µM | binding [6]: no | Kd [7]: 0.34 ± 0.04 µM | binding [8]: no
